“Also recorded” adds a separate entry of the source.
Tests used:
86 kDa form of CBP86 = experiment: In vitro capacitation of human sperm, anti-phosphotyrosine (RC-20) 2-D immunoblot of CBP86; type: cell-based; settings: for Capacitation-induced tyrosine phosphorylation of the 86 kDa CBP86 isoforms: human sperm capacitated in HTF plus HSA plus 100 μμM progesterone plus 100, 200 or 400 μμM of inhibitor
Experimental: Preparation of semen specimens and solubilization of sperm proteins were performed as previously described (Naaby-Hansen et al, 1997a.) For analytical two-dimensional electrophoresis the detergent/urea extracted proteins were separated by isoelectric focusing (IEF) in acrylamide tube gels prior to second dimensional gel electrophoresis (SDS-PAGE), which was performed in a Protean II xi Multi-Cell apparatus (Bio-Rad, Richmond, Calif.) or on large format (23×23 cm) gels (Investigator 2-D Electrophoresis System, ESA) which were also employed for preparative 2D gel electrophoresis. Electrotransfer to nitrocellulose membranes and subsequent visualizing of the proteins by gold staining was accomplished as previously described (Naaby-Hansen et al, 1997) while electrotransfer to PVDF membranes ([…], Pierce) was carried out as described by Henzel et al. (1993) using the transfer buffer composition of Matsudaira (1987) (10 mM 3-[cyclohexylamino]-1-propanesulfonic acid, 10% methanol, pH 11). The immobilized proteins were visualized by staining in a solution containing 0.1% Commassie R250, 40% methanol and 0.1% acetic acid for one minute, followed by destaining in a solution of 10% acetic acid and 50% methanol for 3×3 minutes.
Motile sperm were harvested by the swim up method of Bronson and Fusi (1990). A control sample was removed and snap frozen (−70 C.), while the remaining sperm were resuspended in one of the following media: Dulbecco's PBS, BWW, BWW plus 3 mM b-cyclodextran (Sigma), BWW plus b-cyclodextran and 100 μμM progesterone, human tubal fluid [HTF] (Irvine) plus HSA (30 mg/ml), HTF plus HSA plus 2, 20 or 100 μμM progesterone, HTF plus HSA plus 100 μμM progesterone plus either 100, 200 or 400 μμM of genestein or daidzein. (Akiyama et al., 1987). Capacitation was achieved by incubating the samples at 37° C. in 5% CO2 with sperm removed at various timepoints and isolated by centrifugation. […]

[1] = tested on: T1, recombinant CBP86 (CR-A of CBP86 with C-terminal six-histidine tag, expressed in E. coli)
T1 sequence: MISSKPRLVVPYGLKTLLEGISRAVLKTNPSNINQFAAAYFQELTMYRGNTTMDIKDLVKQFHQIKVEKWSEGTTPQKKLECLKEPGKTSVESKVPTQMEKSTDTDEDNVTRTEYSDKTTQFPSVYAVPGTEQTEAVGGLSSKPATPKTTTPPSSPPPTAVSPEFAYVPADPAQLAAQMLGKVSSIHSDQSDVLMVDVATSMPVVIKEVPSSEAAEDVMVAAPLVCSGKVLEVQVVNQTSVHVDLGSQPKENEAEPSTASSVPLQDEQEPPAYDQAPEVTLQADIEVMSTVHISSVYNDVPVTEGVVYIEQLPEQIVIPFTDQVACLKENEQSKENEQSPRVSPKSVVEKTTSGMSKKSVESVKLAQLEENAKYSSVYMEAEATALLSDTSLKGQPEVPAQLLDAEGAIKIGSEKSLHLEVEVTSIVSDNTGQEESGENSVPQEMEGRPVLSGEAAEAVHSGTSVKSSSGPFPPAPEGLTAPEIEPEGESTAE

| Compound | Capacitation-induced tyrosine phosphorylation of the 86 kDa CBP86 isoforms (86 kDa form of CBP86) | also measured |
| --- | --- | --- |
| O=c1c(-c2ccc(O)cc2)coc2cc(O)ccc12 [daidzein] | had an inhibitory effect on phosphorylation of CBP86 |  |
| CC(=O)[C@H]1CC[C@H]2[C@@H]3CCC4=CC(=O)CC[C@]4(C)[C@H]3CC[C@]12C [progesterone] |  | Tyrosine phosphorylation of the most acidic of the CBP86 isoforms (86 kDa form of CBP86; 100 microM added to HTF+ albumin capacitation media, compared with HTF plus albumin alone): further enhanced the phosphorylation; also recorded: leads to phosphorylation of tyrosine residues on the acidic CBP86 isoforms |
| O=c1c(-c2ccc(O)cc2)coc2cc(O)cc(O)c12 [genistein] | inhibited in a concentration dependent manner |  |
| baculovirus expressed c-Src (Upstate Biotechnology, Inc.) |  | tyrosine phosphorylation of recombinant CBP86 in an in vitro kinase assay ([32P]ATP, SDS-PAGE, autoradiography) [1]: An increase in tyrosine phosphorylation of CBP86 was noted as its concentration increased in the presence of a constant amount of c-Src |
